According to patent US20240384268A1, “Oligonucleotides” (Hudson Institute of Medical Research, priority 2021, published 2024):

Biological target: T1, human TLR7 (Homo sapiens, UniProt Q9NYK1)
T1 construct: HA; host or cells: 293XL-hTLR7-HA (HEK293)
T1 sequence (Q9NYK1 27-1049): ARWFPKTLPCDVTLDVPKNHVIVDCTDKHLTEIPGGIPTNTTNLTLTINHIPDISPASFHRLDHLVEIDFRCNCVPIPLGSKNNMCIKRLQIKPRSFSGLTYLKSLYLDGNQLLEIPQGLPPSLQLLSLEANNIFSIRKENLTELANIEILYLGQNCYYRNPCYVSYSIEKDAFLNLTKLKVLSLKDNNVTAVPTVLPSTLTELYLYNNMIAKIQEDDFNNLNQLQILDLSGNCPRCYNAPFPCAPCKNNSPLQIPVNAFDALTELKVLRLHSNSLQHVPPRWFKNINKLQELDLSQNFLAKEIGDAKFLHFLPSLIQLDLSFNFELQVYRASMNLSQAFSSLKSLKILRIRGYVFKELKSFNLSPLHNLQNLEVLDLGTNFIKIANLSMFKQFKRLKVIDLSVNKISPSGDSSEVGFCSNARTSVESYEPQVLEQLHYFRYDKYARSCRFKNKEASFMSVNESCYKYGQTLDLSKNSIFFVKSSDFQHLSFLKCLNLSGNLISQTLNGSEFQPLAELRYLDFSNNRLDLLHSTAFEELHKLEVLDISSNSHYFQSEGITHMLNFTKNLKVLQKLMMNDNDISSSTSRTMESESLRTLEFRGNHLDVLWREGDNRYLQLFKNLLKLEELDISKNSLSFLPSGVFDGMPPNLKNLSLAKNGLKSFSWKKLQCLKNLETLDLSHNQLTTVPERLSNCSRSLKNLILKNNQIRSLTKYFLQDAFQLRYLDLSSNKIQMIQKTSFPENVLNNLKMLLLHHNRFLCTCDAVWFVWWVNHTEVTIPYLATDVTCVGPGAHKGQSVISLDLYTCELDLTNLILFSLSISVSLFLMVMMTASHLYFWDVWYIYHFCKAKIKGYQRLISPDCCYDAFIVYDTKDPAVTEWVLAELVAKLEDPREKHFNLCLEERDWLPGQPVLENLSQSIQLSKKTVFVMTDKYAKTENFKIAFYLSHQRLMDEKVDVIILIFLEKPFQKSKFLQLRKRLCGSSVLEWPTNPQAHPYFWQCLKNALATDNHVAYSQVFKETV
Assay: HEK-TLR7 NF-κB-luciferase reporter, R848 stimulation
Type: cell-based
Details: MOE-modified ASO at 100 nM; averaged NF-κB-Luciferase relative to R848 condition

Row | Sequence | TLR7 100 nM
1 | CTTACTTTCCGAGGTGTCCA (antisense; 2'-MOE modified, pattern not given here) [CAMSAP1-1739 MOE] | 0.588
2 | GAACCACGTCTGCTCTAACA (antisense; 2'-MOE modified, pattern not given here) [CAMSAP1-1635 MOE] | 0.597
3 | GAGGTCTTGGCTTCGTGGAG (antisense; 2'-MOE modified, pattern not given here) [MB21D1-523 MOE] | 0.419
4 | GAGTCTCTGGAGCTTCCTCT (antisense; 2'-MOE modified, pattern not given here) [CAMSAP1-2456 MOE] | 0.469
5 | GATGCTCCTCGGTCTCCCTT (antisense; 2'-MOE modified, pattern not given here) [CAMSAP1-1850 MOE] | 0.453
6 | GATGGCCTCCCATCTCCTTC (antisense; 2'-MOE modified, pattern not given here) [HPRT-329 MOE] | 0.678
7 | GCCGCTTTTCTGTCTGGTTC (antisense; 2'-MOE modified, pattern not given here) [CTNN2B-311 MOE] | 0.567
8 | GCGACTATACGCGCAATATG (antisense; 2'-MOE modified, pattern not given here) [NC5 2′MOE] | 0.948
9 | GCGGAGGTCTTGGCTTCGTG (antisense; 2'-MOE modified, pattern not given here) [MB21D1-526 MOE] | 0.453
10 | GCGTATTATAGCCGATTAAC (antisense; 2'-MOE modified, pattern not given here) [NC1 2′MOE] | 0.565
11 | GCGTGTCTGGAAGCTTCCTT (antisense; 2'-MOE modified, pattern not given here) [CTNN2B-809 MOE] | 0.415
12 | GCTTCAGGCGCTGCCTTGCC (antisense; 2'-MOE modified, pattern not given here) [CAMSAP1-2709 MOE] | 0.527
13 | GGAGATTTCAGAGCAGCTTC (antisense; 2'-MOE modified, pattern not given here) [EGFR-4885 MOE] | 0.330
14 | GGAGCTTCGAGGCCCCAGGC (MOE modified, pattern not given here) [MB21D1-616 MOE] | 0.392
15 | GGAGGTCTTGGCTTCGTGGA (antisense; 2'-MOE modified, pattern not given here) [MB21D1-524 MOE] | 0.434
16 | GGCATCCACCACGTCGTCCA (antisense; 2'-MOE modified, pattern not given here) [EGFR-3266 MOE] | 0.216
17 | GGGAAAGGTTATGCAAGGTC (antisense; 2'-MOE modified, pattern not given here) [CTNN2B-916 MOE] | 0.599
18 | GGTCCATACCCAAGGCATCC (antisense; 2'-MOE modified, pattern not given here) [CTNN2B-2446 MOE] | 0.364
19 | GGTGGTCCACAACCCCTTTC (antisense; 2'-MOE modified, pattern not given here) [MB21D1-697 MOE] | 0.620
20 | GGTGGTGGCCACCCATCTCA (antisense; 2'-MOE modified, pattern not given here) [CTNN2B-2479 MOE] | 0.480
21 | GGTGTCCTTGCACGTGGCTT (antisense; 2'-MOE modified, pattern not given here) [EGFR-1016 MOE] | 0.358
22 | GTCCACATCCTGTGGCTCGT (antisense; 2'-MOE modified, pattern not given here) [CAMSAP1-2906 MOE] | 0.299

Same assay, conditions: MOE-modified ASO at 500 nM; averaged NF-κB-Luciferase relative to R848 condition

Row | Sequence | TLR7 500 nM
23 | CTTACTTTCCGAGGTGTCCA (antisense; 2'-MOE modified, pattern not given here) [CAMSAP1-1739 MOE] | 0.336
24 | GAACCACGTCTGCTCTAACA (antisense; 2'-MOE modified, pattern not given here) [CAMSAP1-1635 MOE] | 0.291
25 | GAGGTCTTGGCTTCGTGGAG (antisense; 2'-MOE modified, pattern not given here) [MB21D1-523 MOE] | 0.095
26 | GAGTCTCTGGAGCTTCCTCT (antisense; 2'-MOE modified, pattern not given here) [CAMSAP1-2456 MOE] | 0.170
27 | GATGCTCCTCGGTCTCCCTT (antisense; 2'-MOE modified, pattern not given here) [CAMSAP1-1850 MOE] | 0.199
28 | GATGGCCTCCCATCTCCTTC (antisense; 2'-MOE modified, pattern not given here) [HPRT-329 MOE] | 0.336
29 | GCCGCTTTTCTGTCTGGTTC (antisense; 2'-MOE modified, pattern not given here) [CTNN2B-311 MOE] | 0.268
30 | GCGACTATACGCGCAATATG (antisense; 2'-MOE modified, pattern not given here) [NC5 2′MOE] | 0.294
31 | GCGGAGGTCTTGGCTTCGTG (antisense; 2'-MOE modified, pattern not given here) [MB21D1-526 MOE] | 0.154
32 | GCGTATTATAGCCGATTAAC (antisense; 2'-MOE modified, pattern not given here) [NC1 2′MOE] | 0.265
33 | GCGTGTCTGGAAGCTTCCTT (antisense; 2'-MOE modified, pattern not given here) [CTNN2B-809 MOE] | 0.134
34 | GCTTCAGGCGCTGCCTTGCC (antisense; 2'-MOE modified, pattern not given here) [CAMSAP1-2709 MOE] | 0.196
35 | GGAGATTTCAGAGCAGCTTC (antisense; 2'-MOE modified, pattern not given here) [EGFR-4885 MOE] | 0.088
36 | GGAGCTTCGAGGCCCCAGGC (MOE modified, pattern not given here) [MB21D1-616 MOE] | 0.179
37 | GGAGGTCTTGGCTTCGTGGA (antisense; 2'-MOE modified, pattern not given here) [MB21D1-524 MOE] | 0.091
38 | GGCATCCACCACGTCGTCCA (antisense; 2'-MOE modified, pattern not given here) [EGFR-3266 MOE] | 0.097
39 | GGGAAAGGTTATGCAAGGTC (antisense; 2'-MOE modified, pattern not given here) [CTNN2B-916 MOE] | 0.163
40 | GGTCCATACCCAAGGCATCC (antisense; 2'-MOE modified, pattern not given here) [CTNN2B-2446 MOE] | 0.096
41 | GGTGGTCCACAACCCCTTTC (antisense; 2'-MOE modified, pattern not given here) [MB21D1-697 MOE] | 0.097
42 | GGTGGTGGCCACCCATCTCA (antisense; 2'-MOE modified, pattern not given here) [CTNN2B-2479 MOE] | 0.192
43 | GGTGTCCTTGCACGTGGCTT (antisense; 2'-MOE modified, pattern not given here) [EGFR-1016 MOE] | 0.131
44 | GTCCACATCCTGTGGCTCGT (antisense; 2'-MOE modified, pattern not given here) [CAMSAP1-2906 MOE] | 0.119
